System: patients with MF
Assay: Phase 2 safety: adverse events, serious adverse events and deaths
Assay type: in vivo, human
Protocol: At screening/baseline, patients underwent a medical history, physical examination, vital sign assessment, ECOG PS assessment, electrocardiogram, and assessment of hematologic parameters and blood chemistry. Hematology/blood chemistry, physical examinations, and vital sign assessments were performed throughout treatment. Toxicity was assessed using the National Cancer Institute Common Terminology Criteria for Adverse Events (NCIC-CTCAE), version 3.0, with relationship to treatment assigned by the investigator and were recorded from the first dose of pacritinib until 30 days after the last dose. Bone marrow biopsy and/or aspirate samples were drawn at baseline, on day 1 of cycle 4 and cycle 10, as clinically indicated, and at the termination visit. Disease response and progression were determined using the relevant International Working Group (IWG) criteria.
The efficacy-evaluable population included those patients with a baseline and corresponding follow-up value. The safety population included all enrolled patients who received ≥1 dose of pacritinib.

SMILES: C1=C/COCc2cc(ccc2OCCN2CCCC2)Nc2nccc(n2)-c2cccc(c2)COC/1 [pacritinib, 11-(2-pyrrolidin-1-yl-ethoxy)-14,19-dioxa-5,7,26-triaza-tetracyclo[19.3.1.1(2,6). 1(8,12)]heptacosa-1(25),2(26),3,5,8,10,12(27),16,21,23-decaene]
- Relation of deaths to pacritinib (phase 2): None of the deaths were considered related to pacritinib
- SAEs considered related to pacritinib (phase 2): two
- Gastrointestinal toxicities (phase 2, n = 31): reported by all patients
- Grade 3/4 AE: anemia (phase 2, n = 31): 5 n
- Grade 3/4 AE: bone pain (phase 2, n = 31): 4 n
- Grade 3/4 AE: diarrhea (phase 2, n = 31): 5 n
- Grade 3/4 AE: fatigue (phase 2, n = 31): 5 n
- Grade 3 or 4 thrombocytopenia (phase 2, n = 31): three
- Grade 3 treatment-related AEs (phase 2, n = 31): 22.6%
- Grade 4 treatment-related AEs (phase 2, n = 31): No grade 4/5 treatment-related AEs were reported
- Leukopenia, neutropenia, lymphopenia (phase 2, n = 31): No leukopenia, neutropenia, or lymphopenia was reported
- Patients who discontinued pacritinib because of an AE (phase 2, n = 31): 9.7%
- Patients with SAEs (phase 2, n = 31): 41.9%
- Patients with at least one grade 3/4 AE (phase 2, n = 31): 71.0%
- Patients with dose interruptions because of AEs (phase 2, n = 31): Fourteen
- Patients with dose reductions because of AEs (phase 2, n = 31): 14 patients
- Treatment-related AE: diarrhea (phase 2, n = 31): 90.3%
- Treatment-related AE: fatigue (phase 2, n = 31): 12.9%
- Treatment-related AE: nausea (phase 2, n = 31): 48.4%
- Treatment-related AE: vomiting (phase 2, n = 31): 29.0%
- Treatment-emergent AE: Abdominal pain (phase 2, n = 31, Any grade): 9 (29.0) n (%)
- Treatment-emergent AE: Anemia (phase 2, n = 31, Any grade): 6 (19.4) n (%)
- Treatment-emergent AE: Asthenia (phase 2, n = 31, Any grade): 5 (16.1) n (%)
- Treatment-emergent AE: Bone pain (phase 2, n = 31, Any grade): 6 (19.4) n (%)
- Treatment-emergent AE: Cardiac murmur (phase 2, n = 31, Any grade): 4 (12.9) n (%)
- Treatment-emergent AE: Constipation (phase 2, n = 31, Any grade): 5 (16.1) n (%)
- Treatment-emergent AE: Diarrhea (phase 2, n = 31, Any grade): 28 (90.3) n (%)
- Treatment-emergent AE: Dyspnea (phase 2, n = 31, Any grade): 5 (16.1) n (%)
- Treatment-emergent AE: Edema peripheral (phase 2, n = 31, Any grade): 12 (38.7) n (%)
- Treatment-emergent AE: Fatigue (phase 2, n = 31, Any grade): 18 (58.1) n (%)
- Treatment-emergent AE: Hyperuricemia (phase 2, n = 31, Any grade): 4 (12.9) n (%)
- Treatment-emergent AE: Insomnia (phase 2, n = 31, Any grade): 9 (29.0) n (%)
- Treatment-emergent AE: Nausea (phase 2, n = 31, Any grade): 16 (51.6) n (%)
- Treatment-emergent AE: Night sweats (phase 2, n = 31, Any grade): 7 (22.6) n (%)
- Treatment-emergent AE: Pain in extremity (phase 2, n = 31, Any grade): 8 (25.8) n (%)
- Treatment-emergent AE: Pruritus (phase 2, n = 31, Any grade): 9 (29.0) n (%)
- Treatment-emergent AE: Pyrexia (phase 2, n = 31, Any grade): 4 (12.9) n (%)
- Treatment-emergent AE: Rash (phase 2, n = 31, Any grade): 4 (12.9) n (%)
- Treatment-emergent AE: Upper respiratory tract infection (phase 2, n = 31, Any grade): 4 (12.9) n (%)
- Treatment-emergent AE: Vomiting (phase 2, n = 31, Any grade): 11 (35.5) n (%)
- Treatment-emergent AE: Weight decreased (phase 2, n = 31, Any grade): 4 (12.9) n (%)
- Treatment-emergent AE: Abdominal pain (phase 2, n = 31, Grade 1): 3 (9.7) n (%)
- Treatment-emergent AE: Anemia (phase 2, n = 31, Grade 1): 0 n (%)
- Treatment-emergent AE: Asthenia (phase 2, n = 31, Grade 1): 4 (12.9) n (%)
- Treatment-emergent AE: Bone pain (phase 2, n = 31, Grade 1): 1 (3.2) n (%)
- Treatment-emergent AE: Cardiac murmur (phase 2, n = 31, Grade 1): 0 n (%)
- Treatment-emergent AE: Constipation (phase 2, n = 31, Grade 1): 5 (16.1) n (%)
- Treatment-emergent AE: Diarrhea (phase 2, n = 31, Grade 1): 14 (45.2) n (%)
- Treatment-emergent AE: Dyspnea (phase 2, n = 31, Grade 1): 4 (12.9) n (%)
- Treatment-emergent AE: Edema peripheral (phase 2, n = 31, Grade 1): 6 (19.4) n (%)
- Treatment-emergent AE: Fatigue (phase 2, n = 31, Grade 1): 2 (6.5) n (%)
- Treatment-emergent AE: Hyperuricemia (phase 2, n = 31, Grade 1): 2 (6.5) n (%)
- Treatment-emergent AE: Insomnia (phase 2, n = 31, Grade 1): 7 (22.6) n (%)
- Treatment-emergent AE: Nausea (phase 2, n = 31, Grade 1): 9 (29.0) n (%)
- Treatment-emergent AE: Night sweats (phase 2, n = 31, Grade 1): 4 (12.9) n (%)
- Treatment-emergent AE: Pain in extremity (phase 2, n = 31, Grade 1): 5 (16.1) n (%)
- Treatment-emergent AE: Pruritus (phase 2, n = 31, Grade 1): 4 (12.9) n (%)
- Treatment-emergent AE: Pyrexia (phase 2, n = 31, Grade 1): 4 (12.9) n (%)
- Treatment-emergent AE: Rash (phase 2, n = 31, Grade 1): 2 (6.5) n (%)
- Treatment-emergent AE: Upper respiratory tract infection (phase 2, n = 31, Grade 1): 3 (9.7) n (%)
- Treatment-emergent AE: Vomiting (phase 2, n = 31, Grade 1): 7 (22.6) n (%)
- Treatment-emergent AE: Weight decreased (phase 2, n = 31, Grade 1): 4 (12.9) n (%)
- Treatment-emergent AE: Abdominal pain (phase 2, n = 31, Grade 2): 3 (9.7) n (%)
- Treatment-emergent AE: Anemia (phase 2, n = 31, Grade 2): 1 (3.2) n (%)
- Treatment-emergent AE: Asthenia (phase 2, n = 31, Grade 2): 1 (3.2) n (%)
- Treatment-emergent AE: Bone pain (phase 2, n = 31, Grade 2): 1 (3.2) n (%)
- Treatment-emergent AE: Cardiac murmur (phase 2, n = 31, Grade 2): 4 (12.9) n (%)
- Treatment-emergent AE: Constipation (phase 2, n = 31, Grade 2): 0 n (%)
- Treatment-emergent AE: Diarrhea (phase 2, n = 31, Grade 2): 9 (29.0) n (%)
- Treatment-emergent AE: Dyspnea (phase 2, n = 31, Grade 2): 0 n (%)
- Treatment-emergent AE: Edema peripheral (phase 2, n = 31, Grade 2): 5 (16.1) n (%)
- Treatment-emergent AE: Fatigue (phase 2, n = 31, Grade 2): 11 (35.5) n (%)
- Treatment-emergent AE: Hyperuricemia (phase 2, n = 31, Grade 2): 0 n (%)
- Treatment-emergent AE: Insomnia (phase 2, n = 31, Grade 2): 2 (6.5) n (%)
- Treatment-emergent AE: Nausea (phase 2, n = 31, Grade 2): 6 (19.4) n (%)
- Treatment-emergent AE: Night sweats (phase 2, n = 31, Grade 2): 3 (9.7) n (%)
- Treatment-emergent AE: Pain in extremity (phase 2, n = 31, Grade 2): 2 (6.5) n (%)
- Treatment-emergent AE: Pruritus (phase 2, n = 31, Grade 2): 4 (12.9) n (%)
- Treatment-emergent AE: Pyrexia (phase 2, n = 31, Grade 2): 0 n (%)
- Treatment-emergent AE: Rash (phase 2, n = 31, Grade 2): 1 (3.2) n (%)
- Treatment-emergent AE: Upper respiratory tract infection (phase 2, n = 31, Grade 2): 1 (3.2) n (%)
- Treatment-emergent AE: Vomiting (phase 2, n = 31, Grade 2): 3 (9.7) n (%)
- Treatment-emergent AE: Weight decreased (phase 2, n = 31, Grade 2): 0 n (%)
- Treatment-emergent AE: Abdominal pain (phase 2, n = 31, Grade 3): 3 (9.7) n (%)
- Treatment-emergent AE: Anemia (phase 2, n = 31, Grade 3): 3 (9.7) n (%)
- Treatment-emergent AE: Asthenia (phase 2, n = 31, Grade 3): 0 n (%)
- Treatment-emergent AE: Bone pain (phase 2, n = 31, Grade 3): 4 (12.9) n (%)
- Treatment-emergent AE: Cardiac murmur (phase 2, n = 31, Grade 3): 0 n (%)
- Treatment-emergent AE: Constipation (phase 2, n = 31, Grade 3): 0 n (%)
- Treatment-emergent AE: Diarrhea (phase 2, n = 31, Grade 3): 5 (16.1) n (%)
- Treatment-emergent AE: Dyspnea (phase 2, n = 31, Grade 3): 1 (3.2) n (%)
- Treatment-emergent AE: Edema peripheral (phase 2, n = 31, Grade 3): 1 (3.2) n (%)
- Treatment-emergent AE: Fatigue (phase 2, n = 31, Grade 3): 4 (12.9) n (%)
- Treatment-emergent AE: Hyperuricemia (phase 2, n = 31, Grade 3): 0 n (%)
- Treatment-emergent AE: Insomnia (phase 2, n = 31, Grade 3): 0 n (%)
- Treatment-emergent AE: Nausea (phase 2, n = 31, Grade 3): 1 (3.2) n (%)
- Treatment-emergent AE: Night sweats (phase 2, n = 31, Grade 3): 0 n (%)
- Treatment-emergent AE: Pain in extremity (phase 2, n = 31, Grade 3): 0 n (%)
- Treatment-emergent AE: Pruritus (phase 2, n = 31, Grade 3): 1 (3.2) n (%)
- Treatment-emergent AE: Pyrexia (phase 2, n = 31, Grade 3): 0 n (%)
- Treatment-emergent AE: Rash (phase 2, n = 31, Grade 3): 1 (3.2) n (%)
- Treatment-emergent AE: Upper respiratory tract infection (phase 2, n = 31, Grade 3): 0 n (%)
- Treatment-emergent AE: Vomiting (phase 2, n = 31, Grade 3): 1 (3.2) n (%)
- Treatment-emergent AE: Weight decreased (phase 2, n = 31, Grade 3): 0 n (%)
- Treatment-emergent AE: Abdominal pain (phase 2, n = 31, Grade 4): 0 n (%)
- Treatment-emergent AE: Anemia (phase 2, n = 31, Grade 4): 2 (6.5) n (%)
- Treatment-emergent AE: Asthenia (phase 2, n = 31, Grade 4): 0 n (%)
- Treatment-emergent AE: Bone pain (phase 2, n = 31, Grade 4): 0 n (%)
- Treatment-emergent AE: Cardiac murmur (phase 2, n = 31, Grade 4): 0 n (%)
- Treatment-emergent AE: Constipation (phase 2, n = 31, Grade 4): 0 n (%)
- Treatment-emergent AE: Diarrhea (phase 2, n = 31, Grade 4): 0 n (%)
- Treatment-emergent AE: Dyspnea (phase 2, n = 31, Grade 4): 0 n (%)
- Treatment-emergent AE: Edema peripheral (phase 2, n = 31, Grade 4): 0 n (%)
- Treatment-emergent AE: Fatigue (phase 2, n = 31, Grade 4): 1 (3.2) n (%)
- Treatment-emergent AE: Hyperuricemia (phase 2, n = 31, Grade 4): 2 (6.5) n (%)
- Treatment-emergent AE: Insomnia (phase 2, n = 31, Grade 4): 0 n (%)
- Treatment-emergent AE: Nausea (phase 2, n = 31, Grade 4): 0 n (%)
- Treatment-emergent AE: Night sweats (phase 2, n = 31, Grade 4): 0 n (%)
- Treatment-emergent AE: Pain in extremity (phase 2, n = 31, Grade 4): 1 (3.2) n (%)
- Treatment-emergent AE: Pruritus (phase 2, n = 31, Grade 4): 0 n (%)
- Treatment-emergent AE: Pyrexia (phase 2, n = 31, Grade 4): 0 n (%)
- Treatment-emergent AE: Rash (phase 2, n = 31, Grade 4): 0 n (%)
- Treatment-emergent AE: Upper respiratory tract infection (phase 2, n = 31, Grade 4): 0 n (%)
- Treatment-emergent AE: Vomiting (phase 2, n = 31, Grade 4): 0 n (%)
- Treatment-emergent AE: Weight decreased (phase 2, n = 31, Grade 4): 0 n (%)
- Patients who died (phase 2, of 33 enrolled): 27.3%

Reference: publication PMC5146859, “Phase 1/2 study of pacritinib, a next generation JAK2/FLT3 inhibitor, in myelofibrosis or other myeloid malignancies” (Journal of Hematology & Oncology, 2016)
